From patent publication US20190002429A1, “Derivatives of Xanthone Compounds” (Agency for Science, Technology and Research, priority 2011, published 2019)
“And” between values parts separate entries of the source, which are not always exact repeats. Equal values may be shown once. Read-outs that look alike come from different tables or passages of the source.

Columns and labels:
[1] = system: MRSA; assay: MIC99 against MRSA (Table 2-1); type: cell-based, Staphylococcus aureus
[2] = system: S. aureus; assay: MIC99 against S. aureus (Table 2-1); type: cell-based, Staphylococcus aureus
[3] = system: MRSA DM21455; assay: MIC against MRSA DM21455; type: cell-based, Staphylococcus aureus
[4] = system: MRSA DM09808R; assay: MIC against MRSA DM09808R; type: cell-based, Staphylococcus aureus
[5] = system: MRSA DB57964/04; assay: MIC against MRSA DB57964/04; type: cell-based, Staphylococcus aureus
[6] = system: Clinical Staphylococcus aureus DM4299; assay: MIC against clinical S. aureus DM4299; type: cell-based
[7] = system: MRSA DR68004; assay: MIC against MRSA DR68004; type: cell-based, Staphylococcus aureus; conditions: MRSA DR68004, Source: Blood
[8] = system: MRSA QC Strain ATCC BAA1026; assay: MIC against MRSA QC strain ATCC BAA1026; type: cell-based, Staphylococcus aureus
[9] = system: Staphylococcus aureus ATCC29213; assay: MIC against S. aureus ATCC29213; type: cell-based
[10] = system: Straphylococcus aureus ATCC 25923; assay: MIC against S. aureus ATCC 25923; type: cell-based, Staphylococcus aureus
[11] = system: Streptococcus epidermidis ATCC 12228; assay: MIC against Streptococcus epidermidis ATCC 12228; type: cell-based
[12] = system: Bacillus cereus ATCC11778; assay: MIC against Bacillus cereus ATCC11778; type: cell-based
[13] = system: Pseudomonas aeruginosa ATCC27853; assay: MIC against Pseudomonas aeruginosa ATCC27853; type: cell-based
[14] = system: Klebsiella pneumoniae ATCC10031; assay: MIC against Klebsiella pneumoniae ATCC10031; type: cell-based
[15] = system: Enterococcus faecalis ATCC 29212; assay: MIC against Enterococcus faecalis ATCC 29212; type: cell-based
[16] = system: Staphylococcus aureus ATCC 700699 (VISA); assay: MIC against S. aureus ATCC 700699 (MRSA-700699, VISA); type: cell-based
[17] = system: Enterococcus faecalis 11: DS6527 (VRE 208/11); assay: MIC against Enterococcus faecalis DS6527 (VRE 208/11); type: cell-based; conditions: E. faecalis DS6527 (VRE 208/11); no unit in table (Example 10 MICs in μg/ml)
[18] = system: Enterococcus faecalis 11: DU9345 VRE; assay: MIC against Enterococcus faecalis DU9345 VRE; type: cell-based; conditions: E. faecalis DU9345 VRE; no unit in table (Example 10 MICs in μg/ml)
[19] = system: Staphylococcus aureus 10: DB6506 (MRSA04/10) (VISA); assay: MIC against S. aureus DB6506 (VISA); type: cell-based; conditions: no unit in table (Example 10 MICs in μg/ml)
[20] = system: MRSA strain DM21455; assay: Kill curve (time killing) of MRSA; type: cell-based, Staphylococcus aureus; conditions: FIG. 1
[21] = system: rabbit cornea; conditions: in vivo
Text: The particular model used was a 5 mm diameter corneal epithelial abrasion model. Wound healing was monitored by a slit lamp using flourescein disclosure dye so that the size of the wound could be measured. The compounds were applied topically three times per day.

[22] = system: MRSA DM21455; assay: Drug resistance test, 20 serial passages; type: cell-based, Staphylococcus aureus; conditions: MRSA DM21455, FIG. 7
[23] = Calcein leakage from DOPE:DOPG liposomes; conditions: DOPE:DOPG = 3:1
Procedure: (§1) To further investigate antimicrobial action of the active compounds via inner membrane targeting, a calcein leakage study was performed. In brief, liposomes which mimic bacterial membrane (DOPE: […] The lipids were dissolved in methanol/chloroform (1:2, by volume). The solvent was then dried gently using a constant stream of nitrogen gas. Then, the lipid film was placed under vacuum for at least two hours. […] The hydrated vesicles were freeze-thaw (frozen in liquid nitrogen and warmed in water bath) for at least 7 cycles. Extrusion method using mini-extruder (Avanti Polar Lipid Inc.) was used to produce homogeneous large unilamellar vesicles (LUVs). The extrusion was done for at least 10 cycles using a polycarbonate membrane (Whatman, pore size 100 nm) to obtain LUVs with diameter of 100 nm. To separate the calcein encapsulated vesicles from free calcein, gel filtration column Sephadex G-50 was used. The concentrations of eluted liposomes were determined using total phosphorus determination assay. Leakage of calcein from the liposome induced by AM-series compounds could be monitored using fluorescence spectroscopy (Photon Technology International Model 814) at an excitation wavelength of 490 nm and an emission wavelength of 520 nm. […] Those compounds with […] HC50 values have stronger leakage %. […] To further investigate the inner membrane targeting action of AM-series compounds, E. coli lipid extract was used to construct the liposome. […] Therefore, the outer layer of Gram-negative bacteria (LPS) may play important role to impede the AM-series compounds to reach inner membrane. Calcein leakage data strongly support the active compounds are inner membrane targeting.

[24] = Calcein leakage from DOPC:DOPS liposomes; conditions: DOPC:DOPS = 3:1
Procedure: as §1

[25] = Calcein leakage from E. coli lipid extract liposomes; conditions: for % Leakage of calcein: E. coli extract
Procedure: as §1

[26] = system: Gram-positive bacteria; assay: Antimicrobial activity against Gram-positive bacteria (statement); type: cell-based
[27] = system: Gram-negative bacteria; assay: Antimicrobial activity against Gram-negative bacteria (statement); type: cell-based
[28] = system: red blood cell
[29] = system: Mycobacterium tuberculosis

With “3,6-bis-[4-(diethylamino)butoxy)]-1-hydroxy-7-methoxy-2,8-bis(3-methylbut-2-enyl)-9H-xanthen-9-one [AM-016]” the “MIC99 MRSA” value [1] was 0.39 µg/mL, the “MIC99 S. aureus” value [2] was 0.39 µg/mL and the “Minimum inhibition concentration (MIC)” value ([3]; MRSA DM21455, Source: Eye) was 0.39 μg/ml and 0.59 μM. The MIC ([3]; MRSA-21455 (Eye), Example 10, Mueller Hinton broth dilution) was 1.56 µg/mL, the “Minimum inhibition concentration (MIC)” value ([4]; MRSA DM09808R, Source: Eye) was 1.56 μg/ml and 2.35 μM and the MIC ([4]; MRSA-09808R (Eye), Example 10, Mueller Hinton broth dilution) was 3.125 µg/mL. The “Minimum inhibition concentration (MIC)” value [5] was 0.78 μg/ml and 1.17 μM, the “Minimum inhibition concentration (MIC)” value [6] was 1.56 μg/ml and 2.35 μM and the “Minimum inhibition concentration (MIC)” value [7] was 1.56 μg/ml and 2.35 μM. For the same substance, the “Minimum inhibition concentration (MIC)” value [8] was 3.125 μg/ml and 4.70 μM, the “Minimum inhibition concentration (MIC)” value [9] was 0.39 μg/ml and 0.59 μM and the “Minimum inhibition concentration (MIC)” value [10] was 3.125 μg/ml and 4.70 μM. The “Minimum inhibition concentration (MIC)” value [11] was 0.78 μg/ml and 1.17 μM, the “Minimum inhibition concentration (MIC)” value [12] was 3.125 μg/ml and 4.70 μM and the “Minimum inhibition concentration (MIC)” value [13] was 50 μg/ml and 75.20 μM. The “Minimum inhibition concentration (MIC)” value [14] was 40 μg/ml and 60.16 μM, the “Minimum inhibition concentration (MIC)” value [15] was 0.78 μg/ml and 1.17 μM and the MIC ([16]; MRSA-700699, Example 10, Mueller Hinton broth dilution) was 0.095 µg/mL. For the same substance, the Minimum inhibitory concentration ([16]; S. aureus ATCC 700699 (VISA), no unit in table (Example 10 MICs in μg/ml)) was 0.39, the Minimum inhibitory concentration [17] was 0.098 and the Minimum inhibitory concentration [18] was 0.78. For the same substance, the Minimum inhibitory concentration [19] was 0.78, the “Time to eliminate 99.9% of MRSA” value [20] was at most 20 min and the “Cytotoxicity to the rabbit eye in corneal wound healing model” value [21] was “does not exhibit any cytotoxicity”. The “Effect on wound healing (percentage wound closing)” value [21] was “does not delay wound healing”, the “Development of drug resistance” value [22] was “has difficulty in developing drug resistance” and the “% Leakage of calcein” value ([23]; compound:lipid ratio 1:2) was 54.43%. The “% Leakage of calcein” value ([23]; compound:lipid ratio 1:4) was 37.00%, the “% Leakage of calcein” value ([23]; compound:lipid ratio 1:8) was 21.00% and the “% Leakage of calcein” value ([24]; compound:lipid ratio 1:2) was 88.43%. For the same substance, the “% Leakage of calcein” value ([24]; compound:lipid ratio 1:4) was 72.76%, the “% Leakage of calcein” value ([24]; compound:lipid ratio 1:8) was 37.66% and the “Leakage of calcein from the E. coli lipid extract (in words)” value [25] was “able to induce leakage”. For the same substance, the “% Leakage of calcein” value ([25]; compound:lipid ratio 1:2) was 57.82%, the “% Leakage of calcein” value ([25]; compound:lipid ratio 1:4) was 58.43% and the “% Leakage of calcein” value ([25]; compound:lipid ratio 1:8) was 31.70%. For the same substance, the “Activity against Gram-positive bacteria” value [26] was “active”, the “Activity against Gram-negative bacteria” value [27] was “inactive” and the HC50 [28] was 19.6 µg/mL. For the same substance, the “Hemolytic concentration, HC50” value [28] was 19.6 µg/mL, the MIC100 [29] was 4 µM and the MIC100 ([29]; value in brackets) was 2.66 µg/mL.
